Reference: US11819507B2, “Cholecalciferol sulfate salts and their use for the treatment of vitamin D deficiency” (CFSO GMBH, priority 2015, dated 2023)

Test: Applying the transdermal formulation of Example 8 to skin; residue on the skin checked by TLC
Type: in vivo
Settings: about 2 ml of the formulation of Example 8 applied in a thin layer, allowed to penetrate for 4 hours; skin wiped with 96% ethanol cotton pad, extract examined by TLC
Procedure: About 2 ml of the formulation prepared in Example 8 were applied in a thin layer to the skin of a subject and allowed to penetrate for 4 hours. Subsequently, the skin was well wiped using a sterile cotton pad soaked with 96% ethanol. The cotton pad was boiled with additional 96% ethanol and squeezed. The ethanol was evaporated on a rotary evaporator, and a small amount of chloroform-methanol (9:1 Vol./Vol.) mixture was added to the flask.

**Q.** Which “L-lysine cholecalciferol sulfate remaining on the skin (TLC on silica gel)” value does the source give for C=C1CCC(OS(=O)(=O)O)CC1=CC=C1CCCC2(C)C1CCC2C(C)CCCC(C)C.NCCCCC(N)C(=O)O [L-lysine cholecalciferol sulfate] here?
**A.** substantially no
